Experimental data as given in patent US20230046728A1, “TECHNOLOGIES USEFUL FOR ASSESSING PERMEABILITY” (FOG PHARMACEUTICALS, INC., priority 2019, published 2023).

What was measured:
[1] = system: Expi293 cells transfected with His-Halotag; assay: Library cell penetration assay, cell crash method (Example 6); assay type: in vitro ADME, human; conditions: for Peptide Signal in Cells (from cells; agents comprising —Cl): MS signal of unconverted —Cl agent from cells; for Peptide Signal in Cells (from cells; agents comprising —Cl) / Mass Shifted Peptide Signal in Cells: library pool or individual peptide; for Mass Shifted Peptide Signal in Cells: MS signal of —OH agent from cells; for Cell Penetration Score: Mass Shifted Peptide Signal in Cells divided by Mass Shifted Peptide Theoretical Max Signal, averaged across replicates
Procedure: Animal cells (e.g., Expi293 cells or human HEK 293 cells) were seeded in tissue culture plates and cultured in Opti-MEM media. The cells were set in PETG flasks at a concentration of 6×10^5 cells/mL and a volume of 30 mL. The cell viability was checked to be above 90-93%. The flasks were placed in a shaking incubator at 300 rpm in 8% CO2.
After 24 hours of incubation, for each flask, one 1.5-mL Lo-bind tube and one 2-mL Lo-Bind tube were prepared. In the 1.5-mL tube, 30 μg of polyhistidine-tagged halotag (His-Halotag) plasmid and Opti-MEM media were added to provide a 1-mL mixture. In the 2-mL Lo-Bind tube, 60 μL of ExpiFectamine and 940 μL of Opti-MEM were added. After 5 minutes, the plasmid/Opti-MEM mixture was added to the ExpiFectamine/Opti-MEM mixture. The combined mixture was placed in an incubator at room temperature for 20 minutes, which was subsequently added to the flask.
After 48 hours of transfection, the transfected cells were checked for viability (90% or higher). The transfected cells were transferred to a protein Lo-Bind Eppendorf 96-well deep well plate (1000 μL), where each well contained 1 million cells in 500 μL of Expi293 media.
Solutions of candidate compounds, either individual peptides or peptides from a peptide library (DPLs), were received at a stock concentration of 10 mM and diluted in DMSO and kept in a “Source Plate”. For DPLs, the peptide concentration in the “Source Plate” was 1 mM, whereas for individual peptides, the concentration was either 100 μM (for a final concentration of 100 nM) or 10 μM (for a final concentration of 10 nM). […] of the DPL or individual peptide solution was added in triplicates to the 96-well plate. The cells were kept in a shaking incubator at 300 rpm and 37 ° C., 8% CO2 overnight for about 18-20 hours.
The following day, one of the following two methods was performed: i) capture beads method or ii) cell crash method.
Cell crash method: the 96-well plate was placed in the centrifuge at 300 g for 5 minutes. 720 μL of the supernatant was removed. The cells were resuspended in residual 200 μL of media. The suspensions were transferred to a 96-well v-bottom plate, which was placed in the centrifuge at 300 g for an additional 5 minutes. All remaining media was removed. The cell pellets were washed with 200 μL of PBS, mixed and placed back in the centrifuge at 300 g and 4 ° C. for an additional 5 minutes. The supernatant was removed and 80 μL of PBS was added.
80 μL of eluted proteins/peptides from the capture beads method or the PBD solution from the cell crash method was transferred into a deepwell low binding plate (500 μL). 80 μL of ammonium hydroxide was added. The plate was kept on a shaker at 37 ° C. for 3 hours. The plate was dried in a speedvac overnight.
The following day, the dried cell pellet was resuspended in 70 μL of 47.5% water with 0.1% FA/47.5% ACN with 0.1% FA/10 μM pepmix (10 mM stock)/5% fresh DMSO. The mixture was let sit in the plate for 1 hour to allow the dissolution of the pellet. If the sample appeared cloudy, more resuspension solution was added (50 μL at a time). 50 μL was transferred directly to the mass spec plate and the plate was sealed with the 384-well plate seal.
(§1) Once all samples were added (including cell free), the plate was placed in an autosampler of a mass spectrometer. For the mass spectrometry analysis, methods from example 1 were employed.
Results from certain assessment were presented blow. Cell crash method was utilized. Mass Shifted Peptide Theoretical Max signal is signal of an agent comprising —OH obtained when using the DhaA to convert input agent comprising —Cl into product agent comprising —OH form without involving cells (multiple agents may be converted simultaneously; in some embodiments, can be performed library by library). In some embodiments, each library pool plus positive and negative references was tested in a single well, which in some cases contain about a million or so cells. […]

DhaA enzyme = DhaA enzyme (Rhodococcus rhodochrous, UniProt P0A3G2); assay: Cell free peptide/DhaA conversion, Mass Shifted Peptide Theoretical Max signal (Example 6); assay type: biochemical; conditions: DhaA converts —Cl input agent into —OH product agent, MS signal
Procedure: For the cell free systems, DPLs were diluted in a 500 μL DPW plate (library dilution plate). Individual peptides were diluted individually in low-bind tubes until making the final working dilution in PBS. At this point, the individual peptides were transferred to the library dilution plate. By having all final dilutions in one plate, a multichannel was used to transfer the diluted peptides to the cell free plates. The same design as “Source Plate” was used for the cell assay. For the peptide only plate, 45 μL of PBS was added to each well and 5 μL of the diluted library/peptide was added in triplicates. For peptide/DhaA plate, 5 μL of 50 μM DhaA enzyme was added, followed by 40 μL of PBS and 5 μL of the diluted library/peptide. Both plates were kept at the bench top thermomixer at 350 rpm and 37 ° C. overnight. The next day, 2 mL of a cell free solution was prepared with 1 mL of DMSO, 20 μL of PepMix and 980 μL of a 1:1 ratio of ACN/0.1% FA and H2O/0.1% FA. 5 μL of the cell free solution was added to a 384 well plate, followed by 45 μL of the cell free sample.
as §1
Results from certain assessment were presented blow. Cell crash method was utilized. Mass Shifted Peptide Theoretical Max signal is signal of an agent comprising —OH obtained when using the DhaA to convert input agent comprising —Cl into product agent comprising —OH form without involving cells (multiple agents may be converted simultaneously; in some embodiments, can be performed library by library). In some embodiments, each library pool plus positive and negative references was tested in a single well, which in some cases contain about a million or so cells. Each library pool is an individually prepared library with no purifications—all members mixed together along with side products, etc. “Cell Penetration Score” is calculated by dividing “Mass Shifted Peptide Signal in Cells” by “Mass Shifted Peptide Theoretical Max Signal” for each pair of replicates, then averaging those values across replicates; additionally or alternatively, COR and/or RPF may also be utilized.

Chain of DhaA enzyme (P0A3G2 whole entry): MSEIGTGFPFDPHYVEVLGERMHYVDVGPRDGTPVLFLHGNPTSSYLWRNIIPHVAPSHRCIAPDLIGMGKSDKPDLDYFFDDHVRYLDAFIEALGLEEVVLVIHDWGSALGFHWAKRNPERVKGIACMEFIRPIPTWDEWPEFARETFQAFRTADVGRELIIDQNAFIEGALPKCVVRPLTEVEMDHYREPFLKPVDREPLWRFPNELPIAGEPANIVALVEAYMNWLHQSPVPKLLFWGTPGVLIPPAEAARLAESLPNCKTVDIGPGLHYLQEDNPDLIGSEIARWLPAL

Compound | Peptide Signal in Cells (from cells; agents comprising —Cl) [1] | Mass Shifted Peptide Signal in Cells [1] | Cell Penetration Score [1] | Mass Shifted Peptide Theoretical Max Signal (DhaA enzyme)
CNC(=O)[C@H](C)NC(=O)[C@H](C)NC(=O)[C@H](CO)NC(=O)[C@]1(C)CCCC=CCCCCCC[C@@](C)(NC(=O)[C@H](Cc2ccccc2)NC(=O)[C@@H](NC(=O)[C@H](CC(C)C)NC(=O)CCC(=O)NCCOCCOCCCCCCCl)[C@@H](C)O)C(=O)N[C@@H](CCC(=O)O)C(=O)N[C@@H](Cc2ccc(O)cc2)C(=O)N[C@@H](Cc2c[nH]c3ccccc23)C(=O)N[C@@H](C)C(=O)N[C@@H]([C@@H](C)O)C(=O)N[C@@H](CC2CCC2)C(=O)N1 [PEP000126, HaloTagO2-Leu-Thr-Phe-R8-Glu-Tyr-Trp-Ala-Thr-Cba-S5-Ser-Ala-Ala-NHMe] | 4E+06 | 4E+07 | 561 | –
HaloTagO2-Leu-Thr-Phe-ReN-Ala-Tyr-Trp-Ala-Gln-Cba-Az-Ser-Ala-Ala-NH2 [PEP000127] | 0E+00 | 1E+06 | 17 | 8E+06
HaloTagO2-Leu-Thr-Phe-ReN-Ala-Tyr-Trp-Ala-Gln-Cba-Az-Ser-Ala-Ala-NHMe [PEP000130] | 5E+03 | 2E+06 | 27 | 7E+06
HaloTagO2-Leu-Thr-Phe-ReN-Glu-Tyr-Trp-Ala-Ala-Cba-Az-Ser-Ala-Ala-NH2 [PEP000133] | 0E+00 | 3E+05 | 5 | 5E+06
HaloTagO2-Leu-Thr-Phe-ReN-Glu-Tyr-Trp-Ala-Ala-Cba-Az-Ser-Ala-Ala-NHMe [PEP000135] | 0E+00 | 3E+05 | 7 | 5E+06
HaloTagO2-Leu-Thr-Phe-ReN-Glu-Tyr-Trp-Ala-Gln-Cba-Az-Ser-Ala-Ala-NH2 [PEP000128] | 0E+00 | 1E+05 | 3 | 4E+06
HaloTagO2-Leu-Thr-Phe-ReN-Glu-Tyr-Trp-Ala-Gln-Cba-Az-Ser-Ala-Ala-NHMe [PEP000131] | 0E+00 | 1E+05 | 3 | 3E+06
HaloTagO2-Leu-Thr-Phe-ReN-Glu-Tyr-Trp-Ala-Gln-Cba-Az-Ser-Ala-Ala-NHMe [PEP000136] | 0E+00 | 1E+04 | 0 | 4E+06
HaloTagO2-Leu-Thr-Phe-ReN-Glu-Tyr-Trp-Ala-Thr-Cba-Az-Ser-Ala-Ala-NH2 [PEP000134] | 3E+03 | 1E+05 | 2 | 6E+06
HaloTagO2-Leu-Thr-Phe-ReN-Glu-Tyr-Trp-Ala-Thr-Cba-Az-Ser-Ala-Ala-NHMe [PEP000137] | 0E+00 | 4E+05 | 6 | 6E+06
HaloTagO2-Leu-Thr-Phe-ReN-Thr-Tyr-Trp-Ala-Gln-Cba-Az-Ser-Ala-Ala-NH2 [PEP000129] | 0E+00 | 1E+06 | 19 | 6E+06
HaloTagO2-Leu-Thr-Phe-ReN-Thr-Tyr-Trp-Ala-Gln-Cba-Az-Ser-Ala-Ala-NHMe [PEP000132] | 0E+00 | 1E+06 | 20 | 6E+06
